Measurements reported in patent US20100249419A1, “UTILIZATION OF NOVEL COMPOUNDS WITH AMYLOID AFFINITY AND METHOD OF PRODUCING THE SAME” (NIHON MEDI-PHYSICS CO., LTD., priority 2007, published 2010).

Assays:
[1] = Partition coefficient based on the octanol extraction method; format: physicochemical; conditions: octanol / 10 mmol/L phosphate buffer (pH 7.4)
Experimental: Partition coefficients based on the octanol extraction method (hereinafter referred to as log Poctanol) were measured, which are generally known as an indicator of permeability of compounds through the blood-brain barrier (hereinafter referred to as BBB).
A diethyl ether solution of Compound 1 prepared in Example 3 (Example 8), a diethyl ether solution of Compound 2 prepared in Example 6 (Example 9), and a diethyl ether solution of [^123I]-IMPY prepared in Reference Example 1 (Comparative Example 4) were each diluted with 10 mg/mL ascorbic acid-containing physiological saline solution, and adjusted to a radioactive concentration of 20-30 MBq/mL. To 2 mL of octanol, 10 μL each of the prepared sample solutions was added, 2 mL of 10 mmol/L phosphate buffer (pH 7.4) was added, followed by stirring for 30 seconds. After the mixture was centrifuged with a low-speed centrifuge (2000 rpm×60 min.), the octanol layer and the water layer were sampled each in an amount of 1 mL, and subjected to measurement of radioactivity count with an autowell gamma system (Type: ARC-301B, manufactured by Aloka). Using the obtained radioactivity count, log Poctanol was calculated in accordance with the equation (2).
A diethyl ether solution (Example 20) of Compound 4 prepared in Example 16, a diethyl ether solution (Example 21) of Compound 6 prepared in Example 19, and a diethyl ether solution (Comparative Example 7) of [^123I]-IMPY were each diluted with a 10 mg/mL ascorbic acid-containing physiological saline solution to adjust to a radioactive concentration of 20-30 MBq/mL. To 2 mL of octanol, 10 μL each of the prepared sample solution was added, and 2 mL of 10 mmol/L phosphate buffer (pH 7.4) was further added, followed by stirring for 30 seconds. After the mixture was centrifuged with a low-speed centrifuge (2000 rpm×60 min.), the octanol layer and the water layer were sampled each in an amount of 1 mL, and subjected to measurement of radioactivity count with an autowell gamma system (Type: ARC-301B, manufactured by Aloka). Using the obtained radioactivity count, logPoctanol was calculated in accordance with the equation (4).

[2] = molecular target: T1, aggregated Aβ (Aβ1-42) injected into amygdaloid nucleus (Homo sapiens, UniProt P05067); assay: Confirmation of imaging of amyloid in brain (ex vivo autoradiogram, Aβ1-42); set-up: species or system male Wistar rat; conditions: brain slice 60 minutes after tail vein injection
T1 construct: Aβ1-42 (manufactured by Wako) was dissolved in phosphate buffer (pH 7.4); purchased Wako
Experimental: The following experiment was carried out in order to examine whether amyloid in brain can be imaged by the compound of the present invention.
(1) Aβ1-42 (manufactured by Wako) was dissolved in phosphate buffer (pH 7.4) and shaken at 37° C. for 72 hours, to obtain a 1 mg/mL suspension of aggregated Aβ (hereinafter referred to as amyloid suspension in the Examples).
(2) 2.5 μL (corresponding to […]) of the amyloid suspension was injected into an amygdaloid nucleus on one side of a male Wistar rat (7-week old). As a control, 2.5 μL of a phosphate buffered physiological saline solution (pH 7.4) was injected into an amygdaloid nucleus on the other side of the rat. The rats were examined 1 day after the injection of the amyloid suspension and the phosphate buffered physiological saline solution (pH 7.4).
(3) Compound 1 was dissolved in a 10 mg/mL ascorbic acid-containing physiological saline solution to obtain a sample solution (22 MBq/mL in radioactivity concentration in the sample solution). This solution was injected under thiopental anesthesia into the rat through the tail vein (dosage: 0.5 mL, dosed radioactivity: 11-13 MBq equivalent).
(4) Brain was removed 60 minutes after the injection to prepare a brain slice of 10 μm in thickness with a microtome (type: CM3050S, manufactured by LEICA). The brain slice was exposed to an imaging plate for 20 hours, and then image analysis was carried out by use of a Bio-imaging Analyzer (type: BAS-2500; manufactured by FUJIFILM Corporation).
(5) After the completion of the image analysis using the Bio-imaging Analyzer, […]
Thus, it was confirmed that amyloid was deposited on the slice (FIG. 6b).
The same procedures as in Example 12 were performed except using a solution of Compound 2 in a 10 mg/mL ascorbic acid as a sample solution (the radioactive concentration of the sample solution was 25 MBq/mL).
(1) Aβ1-42 (manufactured by Wako) was dissolved in phosphate buffer (pH 7.4) and shaken at 37° C. for 72 hours, to obtain 1 mg/mL of a suspension of aggregated Aβ (hereinafter referred to as amyloid suspension in the Examples).
(3) A sample solution (30 MBq/mL in radioactivity concentration, Example 24) in which Compound 4 was dissolved in a 10 mg/mL ascorbic acid-containing physiological saline solution and a sample solution (30 MBq/mL in radioactivity concentration, Example 25) in which Compound 6 was dissolved in a 10 mg/mL ascorbic acid-containing physiological saline solution were prepared. This solution was injected under thiopental anesthesia into the rat through the tail vein (dosage: 0.5 mL, dosed radioactivity: 11-15 MBq equivalent).
Thus, it was confirmed that amyloid was deposited on the slice (FIG. 12 and FIG. 13).

T1 sequence (P05067 672-713): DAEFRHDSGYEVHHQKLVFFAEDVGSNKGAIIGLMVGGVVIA

Row | Substance | logPoctanol value ([1]; Table 4, Examples 8-9) | Accumulation of radioactivity in amygdaloid nucleus on the amyloid-injected side [2] | logPoctanol value ([1]; Table 6, Examples 20-21)
1 | 2-[4′-(2″-hydroxyethoxy)phenyl]-6-[^123I]iodoimidazo[1,2-a]pyridine [Compound 1] | 1.8 | marked accumulation of radioactivity | –
2 | 2-(4′-ethoxyphenyl)-6-[^123I]iodoimidazo[1,2-a]pyridine [Compound 2] | 2.1 | marked accumulation of radioactivity | –
3 | 2-[4′-(3″-hydroxypropoxy)phenyl]-6-[^123I]iodoimidazo[1,2-a]pyridine [Compound 6] | – | marked accumulation of radioactivity | 2.1
